Target: T1, PPAR-γ (Homo sapiens, UniProt P37231)
T1 sequence (P37231 1-505): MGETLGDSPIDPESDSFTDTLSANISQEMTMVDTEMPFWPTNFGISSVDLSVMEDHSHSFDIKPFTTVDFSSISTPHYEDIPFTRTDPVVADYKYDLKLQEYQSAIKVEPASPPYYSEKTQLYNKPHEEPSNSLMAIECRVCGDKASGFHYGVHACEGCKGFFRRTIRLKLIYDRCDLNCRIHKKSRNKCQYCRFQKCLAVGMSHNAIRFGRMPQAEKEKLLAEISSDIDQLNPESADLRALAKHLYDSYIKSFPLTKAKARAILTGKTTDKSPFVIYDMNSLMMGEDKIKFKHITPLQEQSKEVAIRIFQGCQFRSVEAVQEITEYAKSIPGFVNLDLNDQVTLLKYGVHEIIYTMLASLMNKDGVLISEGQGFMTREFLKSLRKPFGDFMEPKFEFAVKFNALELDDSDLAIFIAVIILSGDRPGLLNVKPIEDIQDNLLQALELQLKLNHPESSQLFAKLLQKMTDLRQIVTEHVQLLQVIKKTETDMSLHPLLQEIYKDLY
Test: LanthaScreen TR-FRET competitive binding assay

| Compound | IC50 [µM] |
| --- | --- |
| COc1cc(CC/C(C)=N\O)ccc1OCC(=O)Nc1nccs1 [G2, (Z)-2-(4-(3-(Hydroxyimino)butyl)-2-methoxyphenoxy)-N-(thiazol-2-yl)acetamide] | 4.51 |
| COc1cc(CC/C(C)=N\O)ccc1OCC(=O)Nc1ccc(F)cc1 [G1, (Z)-N-(4-Fluorophenyl)-2-(4-(3-(hydroxyimino)butyl)-2-methoxyphenoxy)acetamide] | 2.25 |
